Assay results published in US20210380545A1, “(S)-ENANTIOMERIC FORM OF A HETEROCYCLIC COMPOUND HAVING MOTIVATION IMPROVING AND/OR REFERENCE MEMORY ENHANCING ACTIVITY” (Red Bull GmbH, priority 2018, published 2021).
Read-outs that look alike come from different tables or passages of the source.

Tests used:
[1] = target: T1, human dopamine transporter (DAT) (Homo sapiens, UniProt Q01959); experiment: Reuptake inhibition assay, [3H]-dopamine uptake in HEK-DAT cells; format: cell-based
T1 construct: expressed in transfected cells
T1 sequence (Q01959 whole entry): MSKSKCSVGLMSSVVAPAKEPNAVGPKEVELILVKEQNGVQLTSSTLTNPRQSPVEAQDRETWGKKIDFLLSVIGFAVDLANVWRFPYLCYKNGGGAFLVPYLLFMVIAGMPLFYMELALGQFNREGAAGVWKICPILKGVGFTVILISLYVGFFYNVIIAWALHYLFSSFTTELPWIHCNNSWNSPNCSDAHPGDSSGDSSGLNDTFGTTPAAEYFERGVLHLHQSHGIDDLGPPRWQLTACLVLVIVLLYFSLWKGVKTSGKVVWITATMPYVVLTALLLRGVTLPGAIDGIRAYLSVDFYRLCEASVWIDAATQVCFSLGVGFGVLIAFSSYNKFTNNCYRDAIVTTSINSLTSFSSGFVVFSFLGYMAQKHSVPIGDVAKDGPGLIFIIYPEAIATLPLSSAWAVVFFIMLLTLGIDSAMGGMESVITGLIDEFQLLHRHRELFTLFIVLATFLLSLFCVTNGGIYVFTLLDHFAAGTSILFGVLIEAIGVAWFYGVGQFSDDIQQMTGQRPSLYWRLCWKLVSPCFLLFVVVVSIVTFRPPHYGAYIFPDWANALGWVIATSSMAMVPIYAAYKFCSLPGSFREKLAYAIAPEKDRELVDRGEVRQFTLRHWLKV

[2] = system: Adult male Sprague-Dawley rats; details: for chow intake vs vehicle treatment / lever pressing vs vehicle treatment: TBZ 1.0 mg/kg plus vehicle vs vehicle/vehicle
Procedure: Rats were assessed using the fixed ratio 5/chow feeding choice test.
Adult male Sprague-Dawley rats (Envigo Sprague Dawley, Indianapolis, Ind., USA; weights 275-299 g upon arrival) were pair-housed in a colony maintained at 23° C., with a 12-h light/dark cycle (lights on 07:00). Rats were food deprived to 85% of their free-feeding body weight for operant training and allowed modest growth throughout the experiment. Water was available ad libitum in the home cages.
Behavioural sessions were conducted in operant chambers (28×23×23 cm3; Med Associates, Fairfax, Vt.) with 30 minute sessions 5 days/week. Rats were initially trained to lever press on a continuous reinforcement FR1 schedule (high-carbohydrate 45 mg pellets, Bio-Serv, Frenchtown, N.J.) and then shifted to the FR5 schedule. After 5 weeks of training on the FR5 schedule, chow was introduced. Weighed amounts of laboratory chow (Laboratory Diet, 5P00 Prolab RMH 3000, Purina Mills, St. Louis, Mo.; typically 15-20 g) were concurrently available on the floor of the chamber during the FR5/chow feeding choice task sessions. At the end of each 30 minute session, rats were immediately removed from the chambers, number of lever presses was recorded, and the amount of chow consumed was determined by weighing the remaining food (including spillage). Rats were trained on the FR5/chow feeding choice procedure for 5 weeks, after which drug testing began. On baseline and drug treatment days, rats consumed all of the operant pellets that were delivered during each session.
The DMSO/Tween 80/saline solution was administered as the vehicle control. TBZ was obtained from Tocris Bioscience (Ellisville, Mo.) and was dissolved in DMSO, 0.9% saline, and titrated with HCl. The DMSO/saline solution was administered as the vehicle control. The TBZ dose was 1.0 mg/kg.
The experiment used a within-groups design, with each rat receiving each drug treatment in a randomly varied order (one treatment per week, with none of the treatment sequences repeated across different animals).
Total number of lever presses and gram quantity of chow intake from the 30 minute sessions were analysed using repeated measures ANOVA. […] When there was a significant ANOVA, non-orthogonal planned comparisons were performed, using the overall error term to assess differences between each treatment and the control condition.

[3] = target: T2, human serotonin transporter (SERT) (Homo sapiens, UniProt P31645); experiment: Reuptake inhibition assay, [3H]5-HT uptake in HEK-SERT cells; format: cell-based; details: HEK293 cells expressing human SERT, 0.4 μM [3H]5-HT, 1 min
T2 construct: expressed in transfected cells
T2 sequence (P31645 whole entry): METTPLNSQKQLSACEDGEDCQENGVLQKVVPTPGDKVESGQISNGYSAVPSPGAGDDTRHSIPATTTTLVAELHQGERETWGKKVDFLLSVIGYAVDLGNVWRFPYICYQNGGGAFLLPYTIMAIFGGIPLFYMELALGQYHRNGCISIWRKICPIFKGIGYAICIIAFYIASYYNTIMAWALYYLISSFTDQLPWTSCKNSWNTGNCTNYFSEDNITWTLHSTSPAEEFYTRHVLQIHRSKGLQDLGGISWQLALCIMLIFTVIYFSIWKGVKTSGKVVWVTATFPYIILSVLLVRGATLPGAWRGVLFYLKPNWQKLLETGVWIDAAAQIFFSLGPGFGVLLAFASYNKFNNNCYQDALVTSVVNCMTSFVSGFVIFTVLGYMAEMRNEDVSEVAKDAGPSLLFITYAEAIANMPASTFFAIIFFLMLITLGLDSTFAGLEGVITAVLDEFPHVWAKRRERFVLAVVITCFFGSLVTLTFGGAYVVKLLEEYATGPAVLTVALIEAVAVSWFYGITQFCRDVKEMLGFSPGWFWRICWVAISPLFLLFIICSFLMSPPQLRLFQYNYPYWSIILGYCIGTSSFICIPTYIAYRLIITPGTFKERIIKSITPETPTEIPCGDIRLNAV

Male Sprague-Dawley rats = experiment: Holeboard test (reference memory index, RMI); format: in vivo, rat
Procedure: Male Sprague-Dawley rats (17 to 18 weeks and 22 to 23 months old), bred and maintained in the Core Unit of Biomedical Research, Division of Laboratory Animal Science and Genetics, Medical University of Vienna were used. The animals were transferred to a separate experimental room one week before the start of the experimental procedure and kept there throughout the experiment individually in standard Makrolon cages filled with autoclaved woodchips temperature: 22±2° C.; humidity: 55±5%; 12 h artificial light/12 h dark cycle: light on at 7:00 am). The study was carried out according to the guidelines of the Ethics committee, Medical University of Vienna, and were approved by the Federal Ministry of Education, Science and Culture, Austria.
The holeboard (1 m×1 m) was made of black plastic and was surrounded by translucent plexiglass walls. The walls were equipped with spatial cues. Distal cues were provided by room structures outside the board. Four out of sixteen regularly arranged holes (diameter and depth 7 cm) were baited (dustless precision pellets, 45 mg, Bioserv®). The pattern of baited holes remained the same during the entire test. To avoid olfactory orientation pellets were also present in an area below the board. Prior to the experiment for three days the rats were handled for 15 min to get familiarized to the experimenter, followed by two days of habituation to the hole-board during which the animals could explore the maze for 15 min each day with access to food pellets. The weight of each rat was reduced by food restriction to reach 85% of its initial body weight before the start of the experiment. Tap water was given ad libitum. Rats were trained for three days (five trials on day one, four trials on day 2 and a retention trial at day 3). Every trial lasted for 120 s or until all four pellets were found. The apparatus was cleaned with 0.1% Incidin® (Ecolab, Dusseldorf, Germany) between trials to remove odor cues. The interval between two successive trials for an individual was 20 min. A camera mounted on the room ceiling recorded the performance of the rats in the maze. […] To compare rats with similar levels of motivation, rats with less than 40-hole visits in total over the ten trials were excluded from the analysis. Reference memory errors were noted as the number of visits to the unbaited holes. The Reference Memory Index (RMI) was calculated using the formula (first+revisits of baited holes)/total visits of all holes. All behavioral training/testing was performed during the light phase of the light-dark cycle.

[4] = target: T3, human nor-epinephrine transporter (NET) (Homo sapiens, UniProt P23975); experiment: Reuptake inhibition assay, [3H]MPP+ uptake in HEK-NET cells; format: cell-based; details: HEK293 cells expressing human NET, 0.05 μM [3H]MPP+, 3 min
T3 construct: expressed in transfected cells
T3 sequence (P23975 whole entry): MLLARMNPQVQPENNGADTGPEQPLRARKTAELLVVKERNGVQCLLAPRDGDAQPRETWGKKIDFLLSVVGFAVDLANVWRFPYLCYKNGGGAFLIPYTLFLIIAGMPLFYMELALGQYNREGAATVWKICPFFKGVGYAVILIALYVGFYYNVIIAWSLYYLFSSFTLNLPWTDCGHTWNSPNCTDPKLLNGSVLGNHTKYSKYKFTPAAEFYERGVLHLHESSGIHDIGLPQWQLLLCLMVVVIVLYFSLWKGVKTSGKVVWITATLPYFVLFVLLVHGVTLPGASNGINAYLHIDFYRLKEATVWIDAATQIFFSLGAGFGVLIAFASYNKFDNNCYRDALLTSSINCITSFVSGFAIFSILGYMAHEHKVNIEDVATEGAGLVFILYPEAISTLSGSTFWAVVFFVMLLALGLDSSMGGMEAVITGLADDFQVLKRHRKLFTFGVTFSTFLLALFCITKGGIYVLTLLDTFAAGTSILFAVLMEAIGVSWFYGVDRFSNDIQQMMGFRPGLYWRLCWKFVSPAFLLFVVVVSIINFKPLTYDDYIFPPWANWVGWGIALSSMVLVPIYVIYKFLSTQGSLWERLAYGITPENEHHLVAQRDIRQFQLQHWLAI

[5] = HEK293 cells expressing human DAT, 0.2 μM [3H]-dopamine, 1 min, read-out: IC50, inhibition of DAT-mediated dopamine reuptake
[6] = p<0.001, listed as Tetrabenazine

[O-][S+](Cc1cncs1)C(c1ccccc1)c1ccccc1 (racemic) [Compound C3, 5-(diphenylmethanesulfinylmethyl)-1,3-thiazole]
IC50 [1, 5]: 4.6 µM

[O-][S@@+](Cc1cncs1)C(c1ccccc1)c1ccccc1 [Compound C1, (S)-5((diphenylmethanesulfinyl)-methyl-1,3-thiazole)]
effect on TBZ-induced increase of chow intake ([2]; 24.0 mg/kg with TBZ 1.0 mg/kg vs TBZ/vehicle, 30 minute session, p<0.001): significantly attenuated the effects of TBZ
effect on TBZ-induced decrease of lever pressing ([2]; 24.0 mg/kg with TBZ 1.0 mg/kg vs TBZ/vehicle, 30 minute session, p<0.01): significantly attenuated the effects of TBZ
reversal of the effort-related effects of tetrabenazine ([2]; highest dose (24.0 mg/kg) co-administered with TBZ 1.0 mg/kg): partially but significantly reversed the effects of tetrabenazine
IC50 [1]: 2.8 µM
inhibition of SERT [3]: negligible
Reference Memory Index (RMI) vs controls, entire training (Male Sprague-Dawley rats; old male rats (22 to 23 months), 10 mg/kg body weight, Tukey post hoc p=0.021): significantly enhanced RMI
Reference Memory Index (RMI) vs controls, entire training (Male Sprague-Dawley rats; old male rats, 1 mg, p=0.357): performed similar as compared to controls
Reference Memory Index (RMI) vs controls, entire training (Male Sprague-Dawley rats; old male rats, 5 mg, p=0.171): performed similar as compared to controls
RMI vs vehicle, day 1 (Male Sprague-Dawley rats; old male rats, 10 mg, day 1, p=0.032): significantly enhanced RMI
RMI vs vehicle, day 2 (Male Sprague-Dawley rats; old male rats, 10 mg, day 2, p<0.001): significant treatment effect
RMI vs controls, retention trial at day 3 (Male Sprague-Dawley rats; old male rats, 10 mg, day 3, p=0.003): higher RMI
inhibition of NET [4]: negligible

[O-][S@+](Cc1cncs1)C(c1ccccc1)c1ccccc1 [Compound C2, (R)-5-(diphenylmethanesulfinylmethyl)-1,3-thiazole]
IC50 [1, 5]: 22.3 µM

COc1cc2c(cc1OC)C1CC(=O)C(CC(C)C)CN1CC2 (stereo not drawn) [TBZ, 9,10-dimethoxy-3-(2-methylpropyl)-1,3,4,6,7, 11b-hexahydrobenzo[a]quinolizin-2-one]
chow intake vs vehicle treatment ([2]; p<0.001): significantly increased chow intake
lever pressing vs vehicle treatment ([2]; p<0.001): significantly decreased lever pressing
chow intake vs vehicle treatment [2, 6]: increased chow intake
lever pressing vs vehicle treatment [2, 6]: decreased lever pressing
